Reference: patent publication US20260240962A1, “PHARMACEUTICAL COMPOSITION FOR TREATING AND/OR PREVENTING CANCER” (TORAY INDUSTRIES, INC., priority 2023, published 2026)

Legend:
[1] = tested on: CAPRIN-1 protein on the membrane surface of the cancer cells; experiment: Flow cytometry of CAPRIN-1 protein on the membrane surface of HCT-116 treated with low molecular weight compounds; assay type: cell-based, human; details: 1 to 3 days, vs DMSO negative control
Experimental: (§1) 2×10^5 cancer cells suspended in Dulbecco's PBS(−) containing 1% fetal bovine serum (hereinafter, 1% FCS-PBS(−)) were reacted with an antibody against CAPRIN-1 at a concentration of 1 to 10 μg/mL, and then allowed to react on ice (or at 4° C.) for 1 hour.
After the antibody reaction, cells were washed with 1% FCS-PBS (−) and then reacted with a fluorescently labeled anti-IgG secondary antibodies (FITC Goat anti-rabbit IgG (BD Biosciences, 554020), Alexa Fluor 488 anti-rabbit IgG (H+L) (Invitrogen, A21206), Alexa Fluor 647 anti-rabbit IgG (BioLegend, 406414). Alexa Fluor 488 F(ab′)2 anti-mouse IgG (H+L) (Invitrogen, A11017) or Alexa Fluor 488 anti-human IgG (H+L) (Invitrogen, A11013) at a concentration of 1 to 10 μg/mL for reaction with an antibody against CAPRIN-1, followed by 1 hour of reaction on ice (or at 4° C.). After reaction with the fluorescently labeled secondar antibodies, cells were washed with 1% FCS-PBS(−) and then reacted with a PI (propidium iodide) solution (DOJINDO, 341-07881) or Fixable Viability Stain 450 (BD Horizon) prepared at a concentration of 0.1 μg/mL for 15 minutes. Cells were then washed with 1% FCS-PBS(−) and then the scattered light intensity and fluorescence intensity were measured using a flow cytometer according to a standard method.

[2] = tested on: HCT-116; experiment: Antitumor effect in HCT-116 cancer-bearing nude mice; assay type: in vivo; details: HCT-116 subcutaneous in nude mice; 10 mg/kg twice a week into the tail vein
Experimental: The antitumor effect of Dorsomorphin, which was an AMPK inhibitor, confirmed in Example 9 to have the effect of reducing the expression of the CAPRIN-1 protein on the membrane surface of the cancer cells, was confirmed. HCT-116, which were the cancer cells confirmed to express the CAPRIN-1 protein on the cell membrane surface were cultured in a normal culture flask using a complete medium containing 10% fetal bovine serum according to a standard method, and then mixed with RPMI-1640 medium containing 20% Matrigel Basement Membrane Matrix (Corning, 354234), and 1 to 2×10^7 cancer cells per mouse were subcutaneously inoculated into nude mice under anesthesia. After the cancer cells were inoculated, the size of the cancer in each cancer-bearing mouse was measured over time using a vernier caliper, and the tumor volume was calculated for each individual mouse using the formula: (length of the long axis of the cancer)×(length of the short axis of the cancer) 2×0.5 according to a standard method, and the average value of the administration group was calculated. After the cancer cells were inoculated, Dorsomorphin was administered at 10 mg/kg twice a week into the tail vein of each cancer-bearing mouse whose tumor size reached 100 to 200 mm^3 or more. […]

[3] = tested on: CAPRIN-1 protein on the cell membrane surface; experiment: Flow cytometry of CAPRIN-1 protein on the cell membrane surface after trypsin treatment; assay type: cell-based, human; details: Trypsin/EDTA (0.05%) for 5 minutes, vs cells not treated
Experimental: as §1, with “The expression of the CAPRIN-1 protein on the cell membrane surface of the cancer cells for which the expression of the CAPRIN-1 gene was confirmed in Example 1 was confirmed by flow cytometry. 2×10^5” for “2×10^5”, “hour. […]” for “hour.”
SK-MEL-5 and OVCAR3, which were the cancer cells confirmed to express the CAPRIN-1 protein on the cell membrane surface in Example 3, were cultured in a normal culture flask using a complete medium containing 10% fetal bovine serum under an environment of 37° C. and 5% CO2. […] Portions of the collected cells were treated with a solution containing trypsin, which was a digestive enzyme, (Thermo, Trypsin/EDTA (0.05%)) for 5 minutes, and then the proportions of live cells and dead cells stained with trypan blue were measured and calculated using the trypan blue exclusion method according to a standard method, and then the cell density of live cells was calculated. […]

[4] = tested on: OVCAR3; experiment: Soft agar colony formation assay (anchorage-independent colony-forming ability), OVCAR3; assay type: cell-based, human; details: OVCAR3 treated with trypsin vs not treated, 2 to 4 weeks
Experimental: (§2) 10^4 cells of each of the above cells were suspended in DMEM medium gel containing 10% fetal bovine serum containing 0.4% soft agar (Difco, 214220), added to a Petri dish with a diameter of 35 mm, and then incubated under an environment of 37° C. and 5% CO2 for 2 to 4 weeks. After incubation, the number of colonies formed in the gel was counted.

[5] = tested on: SK-MEL-5; experiment: Soft agar colony formation assay (anchorage-independent colony-forming ability), SK-MEL-5; assay type: cell-based, human; details: SK-MEL-5 treated with trypsin vs not treated, 2 to 4 weeks
Experimental: as §2
SK-MEL-5, winch were the cancer cells confirmed to express the CAPRIN-1 protein on the cell membrane surface in Example 3, was cultured in a normal culture flask using a complete medium containing 10% fetal bovine serum under an environment of 37° C. and 5% CO2. The cultured SK-MEL-5 was collected from the flask using a cell scraper. […] On the other hand, […], SK-MEL-5, […], was used to evaluate the anchorage-independent colony-forming ability by soft agar colony formation assay. 10^4 cells of each of the above cells were suspended in a DMEM medium gel containing 10% fetal bovine serum containing 0.4% soft agar (Difco, 214220), added to a Petri dish with a diameter of 35 mm, and then incubated under an environment of 37° C. and 5% CO2 for 2 to 4 weeks.

Cc1ccc(C(=O)Cn2c3c(sc2=N)CCCC3)cc1 [Pifithrin-α]
expression of the CAPRIN-1 protein on the membrane surface of the cancer cells ([1]; final concentration 30 μM): clearly reduced

COc1ccc(CNC(=O)Nc2ncc([N+](=O)[O-])s2)cc1 [GSK-3D inhibitor VIII]
expression of the CAPRIN-1 protein on the membrane surface of the cancer cells ([1]; final concentration 10 μM): clearly reduced

Cc1cc(-c2ccc(CC(=O)Nc3ccc(-c4cccnc4)cc3)cc2)ccn1 [Wnt-C59]
expression of the CAPRIN-1 protein on the membrane surface of the cancer cells ([1]; final concentration 5 μM): clearly reduced

O=C(N/N=C/c1ccc(O)c(O)c1)c1cc2ccccc2cc1O [Dynasore]
expression of the CAPRIN-1 protein on the membrane surface of the cancer cells ([1]; final concentration 100 μM): clearly reduced

COc1cccc(-c2cc(NCc3ccc4c(c3)OCO4)nc(N)n2)c1 [Wnt agonist 1]
expression of the CAPRIN-1 protein on the membrane surface of the cancer cells ([1]; final concentration 20 μM): clearly reduced

FC(F)(F)c1ccc(/C=C/c2nc(COc3ccc(CCCCn4ccnn4)cc3)co2)cc1 [Mubritinib]
expression of the CAPRIN-1 protein on the membrane surface of the cancer cells ([1]; final concentration 1 μM): clearly reduced

Cn1c2cccc(=O)c-2nc2ccccc21 [Pyocyanin]
expression of the CAPRIN-1 protein on the membrane surface of the cancer cells ([1]; final concentration 20 μM): clearly reduced

c1cc(-c2cnn3cc(-c4ccc(OCCN5CCCCC5)cc4)cnc23)ccn1 [Dorsomorphin]
tumor size, when the tumor size of the untreated cancer-bearing mice was taken as 100% [2]: ≤ 70%

CCN(CC)CCCC(C)Nc1nc(C)cc(Nc2ccc3nc(C)cc(N)c3c2)n1.Cl.Cl.Cl (racemic) [Rac1 inhibitor (CAS #1177865-17-6)]
expression of the CAPRIN-1 protein on the membrane surface of the cancer cells ([1]; final concentration 250 nM): clearly reduced

B1: trypsin (protein, UniProt P00761 9-231, looked up)
Trypsin: IVGGYTCAANSIPYQVSLNSGSHFCGGSLINSQWVVSAAHCYKSRIQVRLGEHNIDVLEGNEQFINAAKIITHPNFNGNTLDNDIMLIKLSSPATLNSRVATVSLPRSCAAAGTECLISGWGNTKSSGSSYPSLLQCLKAPVLSDSSCKSSYPGQITGNMICVGFLEGGKDSCQGDSGGPVVCNGQLQGIVSWGYGCAQKNKPGVYTKVCNYVNWIQQTIAAN
modifications: EDTA solution
notes: hydrolytic / digestive enzyme; solution containing trypsin (Thermo, Trypsin/EDTA (0.05%))
expression of the CAPRIN-1 protein on the cell membrane surface ([3]; OVCAR3): reduced
expression of the CAPRIN-1 protein on the cell membrane surface ([3]; SK-MEL-5): reduced
number of colonies formed [4]: significantly lower
number of colonies formed [5]: significantly lower
